Measured values published in patent US6737383B1, “Herbicidal oxadiazolidines” (priority 1999, dated 2004).

Experiments:
[1] = test system: purple nutsedge; assay: Test B pre/postemergence purple nutsedge; assay type: in vivo, Cyperus rotundus
Procedure, shortened: (§1)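 Test chemicals in a non-phytotoxic solvent mixture with surfactant were sprayed preemergence onto planted seeds and postemergence onto plants 2 to 18 cm tall (1- to 4-leaf stage). After twelve to sixteen days in a greenhouse, injury was visually rated against untreated controls from 0 (no effect) to 10 (complete control).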

[2] = test system: sugar beet; assay: Test B pre/postemergence sugar beet; assay type: in vivo, Beta vulgaris
Procedure, shortened: as §1

[3] = test system: rice; assay: Test B flood test rice; assay type: in vivo, Oryza sativa
Procedure, shortened: (§2)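 Each value is a visual injury score relative to controls, with 10 meaning complete control and 0 no effect. Evaluation took place twelve to sixteen days after the 2-leaf-stage plants were treated and kept in the greenhouse.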

[4] = test system: pigweed; assay: Test B pre/postemergence pigweed; assay type: in vivo, Amaranthus retroflexus
Procedure, shortened: as §1

[5] = test system: wild oat; assay: Test B pre/postemergence wild oat; assay type: in vivo, Avena fatua
Procedure, shortened: as §1

[6] = test system: crabgrass; assay: Test B pre/postemergence crabgrass; assay type: in vivo, Digitaria sanguinalis
Procedure, shortened: as §1

[7] = test system: bamyardgrass; assay: Test B flood test barnyardgrass; assay type: in vivo, Echinochloa crus-galli
Procedure, shortened: as §2

[8] = test system: cocklebur; assay: Test B pre/postemergence cocklebur; assay type: in vivo, Xanthium strumarium
Procedure, shortened: as §1

[9] = test system: soybean; assay: Test B pre/postemergence soybean; assay type: in vivo, Glycine max
Procedure, shortened: as §1

[10] = test system: duck salad; assay: Test B flood test duck salad; assay type: in vivo, Heteranthera limosa
Procedure, shortened: as §2

[11] = test system: smallflower flatsedge; assay: Test B flood test smallflower flatsedge; assay type: in vivo, Cyperus difformis
Procedure, shortened: as §2

[12] = test system: rape; assay: Test B pre/postemergence rape; assay type: in vivo, Brassica napus
Procedure, shortened: as §1

[13] = test system: corn; assay: Test B pre/postemergence corn; assay type: in vivo, Zea mays
Procedure, shortened: as §1

[14] = test system: morningglory; assay: Test B pre/postemergence morningglory; assay type: in vivo, Ipomoea hederacea
Procedure, shortened: as §1

[15] = test system: giant foxtail; assay: Test B pre/postemergence giant foxtail; assay type: in vivo, Setaria faberii
Procedure, shortened: as §1

[16] = test system: surinam grass; assay: Test B pre/postemergence surinam grass; assay type: in vivo, Brachiaria decumbens
Procedure, shortened: as §1

[17] = Postemergence, Rate 62 g/ha, scale 0 to 10, 0 is no effect, 10 is complete control
[18] = Postemergence, Rate 250 g/ha, scale 0 to 10, 0 no effect, 10 complete control
[19] = Preemergence, Rate 62 g/ha, scale 0 to 10 (0 no effect, 10 complete control)
[20] = Preemergence, Rate 125 g/ha, scale 0 to 10 (0 no effect, 10 complete control)
[21] = Preemergence, Rate 250 g/ha, scale of 0 to 10 where 0 is no effect and 10 is complete control
[22] = Preemergence, Rate 500 g/ha, scale 0 (no effect) to 10 (complete control)
[23] = Rate 125 g/ha, Postemergence, scale 0 to 10, 0 no effect, 10 complete control
[24] = Rate 500 g/ha, Postemergence, scale 0 to 10, 0 no effect, 10 complete control
[25] = Rate 125 g/ha, Postemergence section (flood test species), scale 0 to 10, 0 no effect, 10 complete control
[26] = Rate 500 g/ha, listed under Postemergence (flood test species), scale 0 to 10, 0 no effect, 10 complete control
[27] = flood test, listed under Postemergence, Rate 250 g/ha, scale 0 to 10, 0 no effect, 10 complete control

COc1cccc(C)c1-n1c(=O)on(C(=O)N(c2ccc(F)cc2)C(C)C)c1=O [Compound 62]
Nutsedge plant response rating [1, 17]: 0
Nutsedge plant response rating [1, 18]: 0
Nutsedge plant response rating [1, 19]: 0
Plant response rating, Nutsedge [1, 20]: 0
Plant response rating, Nutsedge [1, 21]: 0
Nutsedge plant response rating [1, 22]: 0
Nutsedge plant response rating [1, 23]: 0
Nutsedge plant response rating [1, 24]: 3
Sugarbeets plant response rating [2, 17]: 0
Sugarbeets plant response rating [2, 18]: 0
Sugarbeets plant response rating [2, 19]: 0
Plant response rating, Sugarbeets [2, 20]: 0
Plant response rating, Sugarbeets [2, 21]: 0
Sugarbeets plant response rating [2, 22]: 0
Sugarbeets plant response rating [2, 23]: 0
Sugarbeets plant response rating [2, 24]: 5
Rice plant response rating [3, 17]: 0
Rice plant response rating [3, 25]: 0
Rice plant response rating [3, 26]: 0
Rice plant response rating [3, 27]: 0
Redroot pigweed plant response rating [4, 17]: 0
Redroot pigweed plant response rating [4, 18]: 0
Redroot pigweed plant response rating [4, 19]: 0
Plant response rating, Redroot pigweed [4, 20]: 0
Plant response rating, Redroot pigweed [4, 21]: 0
Redroot pigweed plant response rating [4, 22]: 0
Redroot pigweed plant response rating [4, 23]: 0
Redroot pigweed plant response rating [4, 24]: 0
Wild oats plant response rating [5, 17]: 0
Wild oats plant response rating [5, 18]: 3
Wild oats plant response rating [5, 19]: 0
Plant response rating, Wild oats [5, 20]: 0
Plant response rating, Wild oats [5, 21]: 0
Wild oats plant response rating [5, 22]: 0
Wild oats plant response rating [5, 23]: 0
Wild oats plant response rating [5, 24]: 3
Crabgrass plant response rating [6, 17]: 0
Crabgrass plant response rating [6, 18]: 0
Crabgrass plant response rating [6, 19]: 2
Plant response rating, Crabgrass [6, 20]: 3
Plant response rating, Crabgrass [6, 21]: 6
Crabgrass plant response rating [6, 22]: 9
Crabgrass plant response rating [6, 23]: 0
Crabgrass plant response rating [6, 24]: 7
Barnyardgrass plant response rating [7, 17]: 0
Barnyardgrass plant response rating [7, 25]: 0
Barnyardgrass plant response rating [7, 26]: 0
Barnyardgrass plant response rating [7, 27]: 0
Cocklebur plant response rating [8, 17]: 0
Cocklebur plant response rating [8, 18]: 6
Cocklebur plant response rating [8, 19]: 0
Plant response rating, Cocklebur [8, 21]: 0
Cocklebur plant response rating [8, 22]: 5
Cocklebur plant response rating [8, 23]: 4
Cocklebur plant response rating [8, 24]: 6
Soybean plant response rating [9, 17]: 1
Soybean plant response rating [9, 18]: 2
Soybean plant response rating [9, 19]: 0
Plant response rating, Soybean [9, 20]: 0
Plant response rating, Soybean [9, 21]: 0
Soybean plant response rating [9, 22]: 0
Soybean plant response rating [9, 23]: 1
Soybean plant response rating [9, 24]: 3
Ducksalad plant response rating [10, 17]: 0
Ducksalad plant response rating [10, 25]: 0
Ducksalad plant response rating [10, 26]: 0
Ducksalad plant response rating [10, 27]: 0
S. Flatsedge plant response rating [11, 17]: 0
S. Flatsedge plant response rating [11, 25]: 0
S. Flatsedge plant response rating [11, 26]: 0
S. Flatsedge plant response rating [11, 27]: 0
Rape plant response rating [12, 17]: 0
Rape plant response rating [12, 18]: 0
Rape plant response rating [12, 19]: 0
Plant response rating, Rape [12, 20]: 0
Plant response rating, Rape [12, 21]: 0
Rape plant response rating [12, 22]: 0
Rape plant response rating [12, 23]: 0
Rape plant response rating [12, 24]: 0
Corn plant response rating [13, 17]: 0
Corn plant response rating [13, 18]: 0
Corn plant response rating [13, 19]: 0
Plant response rating, Corn [13, 20]: 0
Plant response rating, Corn [13, 21]: 0
Corn plant response rating [13, 22]: 0
Corn plant response rating [13, 23]: 0
Corn plant response rating [13, 24]: 0
Morningglory plant response rating [14, 17]: 2
Morningglory plant response rating [14, 18]: 2
Morningglory plant response rating [14, 19]: 0
Plant response rating, Morningglory [14, 20]: 0
Plant response rating, Morningglory [14, 21]: 0
Morningglory plant response rating [14, 22]: 3
Morningglory plant response rating [14, 23]: 2
Morningglory plant response rating [14, 24]: 6
Giant foxtail plant response rating [15, 17]: 0
Giant foxtail plant response rating [15, 18]: 0
Giant foxtail plant response rating [15, 19]: 5
Plant response rating, Giant foxtail [15, 20]: 5
Plant response rating, Giant foxtail [15, 21]: 9
Giant foxtail plant response rating [15, 22]: 10
Giant foxtail plant response rating [15, 23]: 0
Giant foxtail plant response rating [15, 24]: 2
B. signalgrass plant response rating [16, 17]: 0
B. signalgrass plant response rating [16, 18]: 2
B. signalgrass plant response rating [16, 19]: 0
Plant response rating, B. signalgrass [16, 20]: 0
Plant response rating, B. signalgrass [16, 21]: 0
B. signalgrass plant response rating [16, 22]: 0
B. signalgrass plant response rating [16, 23]: 0
B. signalgrass plant response rating ([16]; Rate 500 g/ha, Postemergence, scale of 0 to 10 where 0 is no effect and 10 is complete control): 4
